The text below walks through data of ChEMBL document CHEMBL1201862, “PubChem BioAssay data set” (2004).

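In this assay, cells in 96-well plates receive the compound at five concentrations for 48 hours. Endpoints are linearly interpolated between the surrounding concentrations. GI50 marks 50% less growth.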 Calls of active or inactive are those of the source. No stated cut-off is given here; in the data, active = GI50 up to about 1.1 µM and inactive = higher. Where only a bound is given, the exact number is not on record here.

Common to all, as to assay: DTP human tumour cell line panel, 48 h
The test system of assay [1] is HOP-92.
Assay [2] deals with CAKI-1.
In assay [3] the test system is OVCAR-3.
Assay [4] relates to OVCAR-8.
Assay [5] concerns DMS-273.
Assay [6] has as its system NCI-H522.
Assay [7] relates to SNB-75.
Assay [8] concerns MOLT-4.
Assay [9] has as its system NCI-H460.
For assay [10], the system named is HCC 2998.
Assay [11] concerns SK-OV-3.
Assay [12] relates to HCT-15.
The test system of assay [13] is TK-10.
Assay [14] concerns RXF 393.
Assay [15] concerns OVCAR-4.
The test system of assay [16] is HCT-116.
The subject of assay [17] is MDA-MB-435.
Assay [18] relates to T47D.
Assay [19] deals with MDA-N.
Assay [20] has as its system MCF7.

As to `N=c1oc2c(O)c(O)ccc2cc1C(N)=O`, the GI50 is > 100 µM (inactive) in assay [1]; > 100 µM (inactive) in assay [2]; 46.8 µM (inactive) in [3]; 24.5 µM (inactive) in assay [4]; > 100 µM (inactive) in assay [5]; 58.6 µM (inactive) in [6]. In addition, the GI50 in assay [7] was 30.2 µM (inactive); in [8], 34 µM (inactive); in assay [9], > 100 µM (inactive); in assay [10] it was > 100 µM (inactive); in [11] it was > 100 µM (inactive); in assay [12] it was greater than 100 µM. In addition, the GI50 is > 100 µM (inactive) in [13], 50.2 µM (inactive) in [14], 17.5 µM (inactive) in [15] and 51.1 µM (inactive) in [16].
Turning to `CN1C(=O)c2cccc3c([N+](=O)[O-])ccc(c23)C1=O`, the GI50 in assay [1] is 6.52 µM (inactive); in [2], 2.45 µM (inactive); in assay [3] it was 3.19 µM (inactive); in assay [4], 6.01 µM (inactive); in assay [5], 4.23 µM (inactive); in assay [6], 1.36 µM (inactive). The GI50 in [7] was 12.3 µM (inactive); in assay [8], 5.55 µM (inactive); in assay [9] it was 2.56 µM (inactive); in assay [10] it was 6 µM (inactive); in [11], 14.7 µM (inactive); in [12], 2.84 µM. Also, the GI50 is 3.86 µM (inactive) in assay [13], 3.1 µM (inactive) in [14], 13 µM (inactive) in assay [15] and 6.52 µM (inactive) in assay [16].
Turning to `NC(CCC(=O)NC(CSC(=O)N(O)c1ccccc1)C(=O)NCC(=O)O)C(=O)O` (stereo unspecified), the GI50 in assay [1], in assay [2], in [3], in assay [4], in assay [5] and in assay [6] was > 1000 µM (inactive) throughout. In addition, the GI50 in assay [7] is > 1000 µM (inactive); in [9], > 1000 µM (inactive); in assay [10] it was > 1000 µM (inactive); in [11], > 1000 µM (inactive); in assay [12], greater than 1000 µM; in assay [13], > 1000 µM (inactive). The GI50 in [14], in [15] and in assay [16] was > 1000 µM (inactive) throughout.
Regarding `CCOc1ccc2nc(NC(=O)C(=O)C(C#N)CC(C)(C)C=O)sc2c1` (stereo unspecified), the GI50 was > 100 µM (inactive) in assay [1]; > 100 µM (inactive) in assay [2]; > 100 µM (inactive) in assay [3]; > 100 µM (inactive) in assay [4]; 18.7 µM (inactive) in assay [5]; 49.9 µM (inactive) in assay [6]. Moreover, the GI50 is > 100 µM (inactive) in assay [7]; > 100 µM (inactive) in assay [8]; > 100 µM (inactive) in [9]; > 100 µM (inactive) in [10]; > 100 µM (inactive) in assay [11]; 43.9 µM in assay [12]. Further, the GI50 in assay [13], in [14], in [15] and in assay [16] was > 100 µM (inactive) throughout.
For the compound `C[N+]1(C)C/C(=C\c2ccc(O)cc2)C(=O)/C(=C/c2ccc(O)cc2)C1`, the GI50 in assay [1] was > 100 µM (inactive); in assay [2] it was > 100 µM (inactive); in assay [3], > 100 µM (inactive); in [4], 48.2 µM (inactive); in assay [5], 53 µM (inactive); in assay [6], > 100 µM (inactive). Further, the GI50 is > 100 µM (inactive) in assay [7]; 47.4 µM (inactive) in assay [8]; 29 µM (inactive) in [9]; > 100 µM (inactive) in [10]; > 100 µM (inactive) in assay [11]; 60.1 µM in [12]. Also, the GI50 in [13] is 18 µM (inactive); in assay [14], > 100 µM (inactive); in [15], > 100 µM (inactive); in [16], 34 µM (inactive).
Turning to `C=C(CN(C)C)C(=O)c1ccc(C)cc1C`, the GI50 in assay [1] was 3.74 µM (inactive); in assay [17], 5.94 µM (inactive); in [2] it was 3.09 µM (inactive); in assay [3] it was 7.87 µM (inactive); in assay [4] it was 12.9 µM (inactive); in [18], 3.31 µM (inactive). The GI50 is 18.2 µM (inactive) in assay [5]; 4.55 µM (inactive) in assay [19]; 2.9 µM (inactive) in assay [6]; 16.5 µM (inactive) in [7]; 1.01 µM (active) in assay [8]; 18.8 µM (inactive) in [9]. The GI50 in [10] is 17.1 µM (inactive); in [20], 3.3 µM (inactive); in assay [11], 18.5 µM (inactive); in assay [12] it was 4.52 µM; in [13] it was 8.73 µM (inactive); in assay [14] it was 4.51 µM (inactive). The GI50 is 9.86 µM (inactive) in [15] and 5.61 µM (inactive) in assay [16].
As to `FC(F)(F)c1ccc2nc(NCc3ccccc3)c(-c3ccccc3)nc2c1`, the concentration for 50% growth inhibition (GI50) in [1] is 0.521 µM (active); in assay [3], 27.6 µM (inactive); in [4] it was 86.3 µM (inactive); in assay [5], 35.2 µM (inactive); in assay [7], 46.2 µM (inactive); in assay [8], 24.7 µM (inactive). In addition, the GI50 is 41 µM (inactive) in assay [9]; 29.9 µM (inactive) in assay [10]; 38.4 µM (inactive) in assay [11]; 25.6 µM in [12]; 29.6 µM (inactive) in assay [13]; 20.4 µM (inactive) in [14]. Besides, in assay [16], the GI50 is 29 µM (inactive).
Take `Cc1ccc(/C=C(\C#N)c2ccccc2)cc1`: the GI50 in [1], in [2], in assay [3], in assay [4], in assay [5] and in assay [6] was > 100 µM (inactive) each time. Further, the GI50 was > 100 µM (inactive) in [7]; > 100 µM (inactive) in assay [8]; > 100 µM (inactive) in assay [9]; > 100 µM (inactive) in assay [10]; > 100 µM (inactive) in assay [11]; greater than 100 µM in assay [12]. The GI50 in assay [13], in assay [14], in assay [15] and in [16] was > 100 µM (inactive) in each case.
As to `CC(C)C(CCOS(=O)(=O)O)CCC(C)[C@H]1[C@@H](O)C(O)C2[C@]3(O)C[C@@H](O)C4(O)C[C@@H](O)CC[C@]4(C)C3CC[C@@]21C` (stereo partly specified), the GI50 in assay [1], in [2], in assay [3], in [4], in [5] and in assay [6] was > 100 µM (inactive) each time. In addition, the GI50 is > 100 µM (inactive) in [9]; > 100 µM (inactive) in assay [10]; > 100 µM (inactive) in [11]; greater than 100 µM in assay [12]; > 100 µM (inactive) in assay [13]; > 100 µM (inactive) in assay [14]. The GI50 in [15] and in assay [16] was > 100 µM (inactive) in each case.
Regarding `O=C1c2ccsc2C(=O)c2sc(CO)cc21`, the GI50 in assay [1] is 0.333 µM (active); in [17] it was < 0.0132 µM (active); in assay [2], 6.47 µM (inactive); in [3], 1.59 µM (inactive); in assay [4], 0.113 µM (active); in assay [5], 0.0327 µM (active). The concentration for 50% growth inhibition (GI50) in assay [19] is < 0.0133 µM (active); in [6], 0.106 µM (active); in [7] it was 0.0564 µM (active); in assay [8], 0.524 µM (active); in assay [9], 1.47 µM (inactive); in assay [10], 3.52 µM (inactive). The GI50 in assay [11] was 1.11 µM (active); in [12] it was 0.0421 µM; in assay [13] it was 5.93 µM (inactive); in assay [14], 1.09 µM (active); in assay [15], 0.167 µM (active); in assay [16] it was 0.11 µM (active).
As for `C/C(=N\NC(=S)N1CCCCCC1)c1ccccn1`, the 50% growth inhibitory concentration (GI50) in assay [1] was 0.01 µM (active); in assay [17], 0.601 µM (active); in [2] it was 0.0162 µM (active); in assay [3], < 0.001 µM (active); in [4] it was 0.00383 µM (active); in [18], 0.00438 µM (active). Besides, the 50% growth inhibitory concentration (GI50) in assay [5] was < 0.001 µM (active); in assay [19], 0.42 µM (active); in [6], 0.0624 µM (active); in assay [7], 0.0692 µM (active); in [8], 0.00676 µM (active); in assay [9], 0.0164 µM (active). The GI50 in [10] was 0.158 µM (active); in assay [20], 0.0022 µM (active); in [11] it was 0.00665 µM (active); in assay [13], 0.573 µM (active); in assay [14] it was 0.553 µM (active); in assay [15], 0.185 µM (active). In addition, the GI50 in assay [16] is 0.00207 µM (active).
Consider `c1ccc2nc(-c3ccc4c(c3)OCO4)ccc2c1`, for which the GI50 in assay [1] is 2.8 µM (inactive); in assay [2], 28.8 µM (inactive); in assay [3], 26.4 µM (inactive); in assay [4] it was 43.5 µM (inactive); in assay [5], 26.2 µM (inactive); in assay [6], 31.8 µM (inactive). Further, the GI50 in assay [7] is 22.5 µM (inactive); in [9] it was 34.5 µM (inactive); in assay [10], 38.3 µM (inactive); in assay [13], 64 µM (inactive); in assay [14], 15.2 µM (inactive); in assay [15], 24.8 µM (inactive).

For orientation: GI50 means the concentration that inhibits growth by half.
